SMILES strings stand for the structures. Values joined by “and” are separate entries in the source; they are usually repeats but may differ in a detail not shown here. Equal entries are not always repeated. Inconclusive results and toxic doses are left out.

The test system of the assay is P388 leukemia ip, CD2F1 mice, survival T/C. The experiment in a line: NCI In Vivo Anticancer Drug Screen. Data for tumor model P388 Leukemia (intraperitoneal) in CD2F1 (CDF1) mice. Conditions: endpoint: median survival time, higher = longer survival. In short, it runs like this:
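Mice carrying the transplanted tumor received test compound or vehicle. Survival was recorded in each group, and the value is the treated-group measurement divided by that of the vehicle-treated control group.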

The mark [1] stands for this setting: dose: 60.0 mg/kg/injection, schedule: Q01DX005 (ip), vehicle: saline with Tween-80.
The mark [2] stands for this setting: dose: 50.0 mg/kg/injection, schedule: Q01DX005 (ip), vehicle: Klucel (hydroxypropylcellulose) (HPC).
The mark [3] stands for this setting: dose: 100.0 mg/kg/injection, schedule: Q01DX005 (ip), vehicle: Klucel (hydroxypropylcellulose) (HPC).
[4] abbreviates: dose: 200.0 mg/kg/injection, schedule: Q01DX005 (ip), vehicle: Klucel (hydroxypropylcellulose) (HPC).
Where [5] appears, read: dose: 60.0 mg/kg/injection, schedule: Q01DX005 (ip), vehicle: saline.
[6] abbreviates: dose: 120.0 mg/kg/injection, schedule: Q01DX005 (ip), vehicle: saline.
[7] abbreviates: dose: 240.0 mg/kg/injection, schedule: Q01DX005 (ip), vehicle: saline.

With `CN(C)CCCN1CC2CC=CCC2C1` (stereo not given), the T/C was 99 % of control (dose: 50.0 mg/kg/injection, schedule: Q01DX005 (ip), vehicle: saline); 99 % of control (dose: 100.0 mg/kg/injection, schedule: Q01DX005 (ip), vehicle: saline); 100 % of control (dose: 200.0 mg/kg/injection, schedule: Q01DX005 (ip), vehicle: saline).

`BrC1C2CCC3OC3C12` (stereo not given): the T/C runs as follows: under setting [1], 104 % of control; (dose: 120.0 mg/kg/injection, schedule: Q01DX005 (ip), vehicle: saline with Tween-80) 103 % of control.

As to `COc1ccc(C(=O)c2cc3c(ccc4ccccc43)oc2=O)cc1`, the T/C (dose: 6.25 mg/kg/injection, schedule: Q01DX009 (ip), vehicle: saline) was 98 % of control; the T/C (dose: 12.5 mg/kg/injection, schedule: Q01DX009 (ip), vehicle: saline) is 96 % of control; the T/C (dose: 25.0 mg/kg/injection, schedule: Q01DX009 (ip), vehicle: saline) was 90 % of control.

Consider `COC(=O)CC/C=N/NC(N)=O`, for which the T/C was 96 % of control (dose: 50.0 mg/kg/injection, schedule: Q01DX009 (ip), vehicle: saline); 114 % of control (dose: 100.0 mg/kg/injection, schedule: Q01DX009 (ip), vehicle: saline); 114 % of control (dose: 200.0 mg/kg/injection, schedule: Q01DX009 (ip), vehicle: saline).

For `CCOC(=O)CCCCCOCOC`, the T/C (dose: 100.0 mg/kg/injection, schedule: Q01DX001 (ip), vehicle: saline with Tween-80) is 106 % of control; the T/C (dose: 200.0 mg/kg/injection, schedule: Q01DX001 (ip), vehicle: saline with Tween-80) was 98 % of control; the T/C (dose: 400.0 mg/kg/injection, schedule: Q01DX001 (ip), vehicle: saline with Tween-80) was 106 % of control.

`C[n+]1cc(Cl)cc(Br)c1`: the T/C (dose: 25.0 mg/kg/injection, schedule: Q01DX005 (ip), vehicle: saline) was 117 % of control.

As to `COc1cc(C2CC(C)(OC)Oc3cc4c(cc32)OCO4)cc(OC)c1O` (stereo not given), the T/C is, setting by setting: (dose: 15.0 mg/kg/injection, schedule: Q01DX005 (ip), vehicle: saline with Tween-80) 90 % of control; (dose: 30.0 mg/kg/injection, schedule: Q01DX005 (ip), vehicle: saline with Tween-80) 88 % of control; under setting [1], 89 % of control.

On to `CCn1c(=NC(=O)c2ccccc2O)sc2ccccc21`, for which the T/C by setting is: (dose: 100.0 mg/kg/injection, schedule: Q01DX001 (ip), vehicle: saline) 98 % of control and 95 % of control; (dose: 200.0 mg/kg/injection, schedule: Q01DX001 (ip), vehicle: saline) 103 % of control and 95 % of control; (dose: 400.0 mg/kg/injection, schedule: Q01DX001 (ip), vehicle: saline) 100 % of control and 103 % of control.

As for `[Tl][S][Tl]`, the T/C reads like this: (dose: 6.25 mg/kg/injection, schedule: Q01DX009 (ip), vehicle: Klucel (hydroxypropylcellulose) (HPC)) 102 % of control; (dose: 12.5 mg/kg/injection, schedule: Q01DX009 (ip), vehicle: Klucel (hydroxypropylcellulose) (HPC)) 100 % of control.

On to `COC(=O)C1=C/C=C\CN/C=C\1C(=O)OC`, for which the T/C (dose: 100.0 mg/kg/injection, schedule: Q04DX003 (ip), vehicle: alcohol) was 97 % of control; the T/C (dose: 200.0 mg/kg/injection, schedule: Q04DX003 (ip), vehicle: alcohol) was 97 % of control; the T/C (dose: 400.0 mg/kg/injection, schedule: Q04DX003 (ip), vehicle: alcohol) was 106 % of control.

As to `Cc1cc(Cl)nc(Cl)c1C#N`, the T/C was 98 % of control (dose: 18.75 mg/kg/injection, schedule: Q04DX003 (ip), vehicle: saline); 103 % of control (dose: 37.5 mg/kg/injection, schedule: Q04DX003 (ip), vehicle: saline); 103 % of control (dose: 75.0 mg/kg/injection, schedule: Q04DX003 (ip), vehicle: saline); 99 % of control (dose: 150.0 mg/kg/injection, schedule: Q04DX003 (ip), vehicle: saline).

In the case of `Nc1cc(O)c(O)c2c1C(=O)c1c(O)c(O)cc(N)c1C2=O`, the T/C is, setting by setting: under setting [2], 102 % of control; under setting [3], 105 % of control; under setting [4], 99 % of control.

On to `NC1CCC[C@@H](O)[C@H]1O` (stereo not given in full), for which the T/C was 104 % of control under setting [5], 103 % of control under setting [6] and 98 % of control under setting [7].

Take `O=C(NC(C(=O)O)C1CC(Cl)=NO1)OCC1c2ccccc2-c2ccccc21` (stereo not given): the T/C was 104 % of control (dose: 3.1 mg/kg/injection, schedule: Q04DX003 (ip), vehicle: other); 116 % of control (dose: 6.2 mg/kg/injection, schedule: Q04DX003 (ip), vehicle: other); 120 % of control (dose: 12.5 mg/kg/injection, schedule: Q04DX003 (ip), vehicle: other); 120 % of control and 123 % of control (dose: 25.0 mg/kg/injection, schedule: Q04DX003 (ip), vehicle: other); 157 % of control (dose: 100.0 mg/kg/injection, schedule: Q04DX003 (ip), vehicle: other); 150 % of control (dose: 200.0 mg/kg/injection, schedule: Q04DX003 (ip), vehicle: other).

In the case of `N#CC(C#N)=C1c2ccccc2C(=O)c2ccccc21`, the T/C runs as follows: under setting [2], 88 % of control; under setting [3], 88 % of control; under setting [4], 92 % of control.

Regarding `O=C(O)C(=O)c1ccc(-c2ccccc2)cc1`, the T/C runs as follows: (dose: 50.0 mg/kg/injection, schedule: Q04DX003 (ip), vehicle: saline) 104 % of control; (dose: 100.0 mg/kg/injection, schedule: Q04DX003 (ip), vehicle: saline) 100 % of control.

As to `CC(C)(O)C#CC(F)(F)C(F)(F)C(F)(F)C(F)(F)C(F)(F)C(F)(F)F`, the T/C is 107 % of control under setting [5], 105 % of control under setting [6] and 103 % of control under setting [7].

On to `Clc1ccc(CSSC(Cl)(Cl)Cl)cc1`, for which the T/C by setting is: (dose: 50.0 mg/kg/injection, schedule: Q01DX005 (ip), vehicle: acetone) 102 % of control; (dose: 100.0 mg/kg/injection, schedule: Q01DX005 (ip), vehicle: acetone) 105 % of control; (dose: 200.0 mg/kg/injection, schedule: Q01DX005 (ip), vehicle: acetone) 107 % of control.

With `CC(C)c1oc(=O)cc2c1[C@@H](O)[C@H]1OC(=O)[C@@]3(C)[C@@H](O)[C@H]4O[C@H]4[C@@]2(C)[C@@H]13`, the T/C reads like this: (dose: 0.94 mg/kg/injection, schedule: Q01DX001 (ip), vehicle: saline with Tween-80) 105 % of control; (dose: 1.0 mg/kg/injection, schedule: Q01DX009 (ip), vehicle: saline with Tween-80) 104 % of control; (dose: 1.88 mg/kg/injection, schedule: Q01DX001 (ip), vehicle: saline with Tween-80) 105 % of control; (dose: 3.75 mg/kg/injection, schedule: Q01DX001 (ip), vehicle: saline with Tween-80) 101 % of control and 107 % of control; (dose: 7.5 mg/kg/injection, schedule: Q01DX009 (ip), vehicle: saline with Tween-80) 120 % of control; (dose: 10.0 mg/kg/injection, schedule: Q01DX009 (ip), vehicle: saline with Tween-80) 113 % of control and 115 % of control. In addition, the T/C runs as follows: (dose: 15.0 mg/kg/injection, schedule: Q01DX001 (ip), vehicle: saline with Tween-80) 108 % of control and 120 % of control; (dose: 15.0 mg/kg/injection, schedule: Q01DX009 (ip), vehicle: saline with Tween-80) 104 % of control; (dose: 30.0 mg/kg/injection, schedule: Q01DX001 (ip), vehicle: saline with Tween-80) 109 % of control and 113 % of control.

In the case of `CCCCC1/C(=C/C(=O)c2ccccc2)Nc2ccccc2N1C(=O)c1ccccc1` (stereo not given), the T/C is, setting by setting: (dose: 60.0 mg/kg/injection, schedule: Q01DX005 (ip), vehicle: Klucel (hydroxypropylcellulose) (HPC)) 97 % of control; (dose: 120.0 mg/kg/injection, schedule: Q01DX005 (ip), vehicle: Klucel (hydroxypropylcellulose) (HPC)) 89 % of control; (dose: 240.0 mg/kg/injection, schedule: Q01DX005 (ip), vehicle: Klucel (hydroxypropylcellulose) (HPC)) 90 % of control.

With `CCCCNC(=O)Nc1cccc2c(O)cccc12`, the T/C is 94 % of control (dose: 6.25 mg/kg/injection, schedule: Q01DX009 (ip), vehicle: DMSO); 87 % of control (dose: 12.5 mg/kg/injection, schedule: Q01DX009 (ip), vehicle: DMSO); 87 % of control (dose: 25.0 mg/kg/injection, schedule: Q01DX009 (ip), vehicle: DMSO).

For `C#CCOC(=O)c1ccc(C(=O)OCC#C)cc1`, the T/C reads like this: (dose: 100.0 mg/kg/injection, schedule: Q04DX003 (ip), vehicle: saline with Tween-80) 100 % of control; (dose: 200.0 mg/kg/injection, schedule: Q04DX003 (ip), vehicle: saline with Tween-80) 90 % of control.

These data come from PubChem BioAssay AID330 (DTP/NCI, 2004).
